Experimental data taken from US7595337B2, “Mitotic kinesin inhibitors” (Merck & Co. Inc., priority 2005, dated 2009).

Molecular target: T1, human poly-histidine tagged KSP motor domain (KSP(367H)) (Homo sapiens, UniProt P52732)
T1 construct: were used to amplify the motor domain and the neck linker region; made in house; host or cells: E. coli BL21 (DE3), pRSETa
T1 sequence (P52732 18-359 limits assumed): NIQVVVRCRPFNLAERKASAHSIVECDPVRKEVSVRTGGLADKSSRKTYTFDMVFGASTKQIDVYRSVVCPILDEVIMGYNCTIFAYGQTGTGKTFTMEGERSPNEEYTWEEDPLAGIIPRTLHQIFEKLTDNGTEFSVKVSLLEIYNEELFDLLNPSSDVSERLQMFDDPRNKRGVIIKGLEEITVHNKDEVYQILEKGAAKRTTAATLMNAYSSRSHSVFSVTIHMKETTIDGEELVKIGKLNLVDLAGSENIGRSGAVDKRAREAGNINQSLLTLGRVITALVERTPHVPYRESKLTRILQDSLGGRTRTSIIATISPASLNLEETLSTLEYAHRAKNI
Test: Kinesin ATPase In Vitro Assay
Assay type: biochemical
Settings: for IC50: microtubules, 1 mM ATP, 23° C., quinaldine red/ammonium molybdate phosphate readout
From the text: I. Kinesin ATPase In Vitro Assay
Cloning and expression of human poly-histidine tagged KSP motor domain (KSP(367H)): Plasmids for the expression of the human KSP motor domain construct were cloned by PCR using a pBluescript full length human KSP construct (Blangy et al., Cell, vol. 83, pp 1159-1169, 1995) as a template. The N-terminal primer 5′-[…] (SEQ. ID. NO.: 1) and the C-terminal primer 5′-[…] […] (SEQ. ID. NO.: 2)
were used to amplify the motor domain and the neck linker region. The PCR products were digested with AseI and XhoI, ligated into the NdeI/XhoI digestion product of pRSETa (Invitrogen) and transformed into E. coli BL21 (DE3).
Cells were grown at 37° C. to an OD600 of 0.5. After cooling the culture to room temperature expression of KSP was induced with 100 μM IPTG and incubation was continued overnight. Cells were pelleted by centrifugation and washed once with ice-cold PBS. Pellets were flash-frozen and stored −80° C.
Protein Purification: Cell pellets were thawed on ice and resuspended in lysis buffer (50 mM K-HEPES, pH 8.0, 250 mM KCl, 0.1% Tween, 10 mM imidazole, 0.5 mM Mg-ATP, 1 mM PMSF, 2 mM benzimidine, 1× complete protease inhibitor cocktail (Roche)). Cell suspensions were incubated with 1 mg/ml lysozyme and 5 mM β-mercaptoethanol on ice for 10 minutes, followed by sonication (3×30 sec). All subsequent procedures were performed at 4° C. Lysates were centrifuged at 40,000×g for 40 minutes. Supernatants were diluted and loaded onto an SP Sepharose column (Pharmacia, 5 ml cartridge) in buffer A (50 mM K-HEPES, pH 6.8, 1 mM MgCl2, 1 mM EGTA, 10 μM Mg-ATP, 1 mM DTT) and eluted with a 0 to 750 mM KCl gradient in buffer A. Fractions containing KSP were pooled and incubated with Ni-NTA resin (Qiagen) for one hour. The resin was washed three times with buffer B (Lysis buffer minus PMSF and protease inhibitor cocktail), followed by three 15-minute incubations and washes with buffer B. Finally, the resin was incubated and washed for 15 minutes three times with buffer C (same as buffer B except for pH 6.0) and poured into a column. KSP was eluted with elution buffer (identical to buffer B except for 150 mM KCl and 250 mM imidazole). KSP-containing fractions were pooled, made 10% in sucrose, and stored at −80° C.
Microtubules are prepared from tubulin isolated from bovine brain. Purified tubulin (>97% MAP-free) at 1 mg/ml is polymerized at 37° C. in the presence of 10 μM paclitaxel, 1 mM DTT, 1 mM GTP in BRB80 buffer (80 mM K-PIPES, 1 mM EGTA, 1 mM MgCl2 at pH 6.8). The resulting microtubules are separated from non-polymerized tubulin by ultracentrifugation and removal of the supernatant. The pellet, containing the microtubules, is gently resuspended in 10 μM paclitaxel, 1 mM DTT, 50 μg/ml ampicillin, and 5 μg/ml chloramphenicol in BRB80.
The kinesin motor domain is incubated with microtubules, 1 mM ATP (1:1 MgCl2: Na-ATP), and compound at 23° C. in buffer containing 80 mM K-HEPES (pH 7.0), 1 mM EGTA, 1 mM DTT, 1 mM MgCl2, and 50 mM KCl. The reaction is terminated by a 2-10 fold dilution with a final buffer composition of 80 mM HEPES and 50 mM EDTA. Free phosphate from the ATP hydrolysis reaction is measured via a quinaldine red/ammonium molybdate assay by adding 150 μl of quench C buffer containing a 2:1 ratio of quench A:quench B. Quench A contains 0.1 mg/ml quinaldine red and 0.14% polyvinyl alcohol; quench B contains 12.3 mM ammonium molybdate tetrahydrate in 1.15 M sulfuric acid. The reaction is incubated for 10 minutes at 23° C., and the absorbance of the phosphomolybdate complex is measured at 540 nm.

| Compound | activity of resolved enantiomer (active / inactive) (assay not named) | IC50 [µM] | relative inhibitory activity of the diastereomers (the cis diastereomer (eluted second) compared with the other, assay not named) |
| --- | --- | --- | --- |
| CC(=O)N1N=C2c3cc(F)ccc3OC[C@H]2[C@H]1c1ccccc1 [Compound 1-3, (3S,3aS)-2-acetyl-8-fluoro-3-phenyl-2,3,3a,4-tetrahydrochromeno[4,3-c]pyrazole] | active | ≤ 30 | – |
| CC(=O)N1N=C2c3cc(F)ccc3OCC2C1(C)c1ccccc1 (mixture of isomers) [Compound 2-2, 2-acetyl-8-fluoro-3-methyl-3-phenyl-2,3,3a,4-tetrahydrochromeno[4,3-c]pyrazole] | – | ≤ 30 | – |
| CC(=O)N1CCN(CCC[C@@]2(c3ccccc3)[C@H]3COc4ccc(F)cc4C3=NN2C(C)=O)CC1 (single isomer, unassigned) [Compound 5-6] | active | ≤ 30 | – |
| CC(=O)N1CCN(CCCC2(c3ccccc3)C3COc4ccc(F)cc4C3=NN2C(=O)C(F)(F)F)CC1 (centres unmarked) [Compound 3-8, 3-[3-(4-acetylpiperazin-1-yl)propyl]-8-fluoro-3-phenyl-2-(trifluoroacetyl)-2,3,3a,4-tetrahydrochromeno[4,3-c]pyrazole] | – | ≤ 30 | – |
| CC(=O)N1CCN(CCC[C@@]2(c3ccccc3)[C@@H]3COc4ccc(F)cc4C3=NN2C(=O)C(F)(F)F)CC1 [Compound 3-9, (3S,3aS)-3-[3-(4-acetylpiperazin-1-yl)propyl]-8-fluoro-3-phenyl-2-(trifluoroacetyl)-2,3,3a,4-tetrahydrochromeno[4,3-c]pyrazole] | active | ≤ 30 | – |
| CC(=O)N1N=C2c3cc(F)ccc3OCC2C1c1ccccc1 (centres unmarked) [Compound 1-2, 2-acetyl-8-fluoro-3-phenyl-2,3,3a,4-tetrahydrochromeno[4,3-c]pyrazole] | – | ≤ 30 | higher inhibitory activity |
| CN(C)CCCC1(c2ccccc2)C2COc3ccc(F)cc3C2=NN1C(=O)C(F)(F)F (centres unmarked) [Compound 3-10, {3-[8-fluoro-3-phenyl-2-(trifluoroacetyl)-2,3,3a,4-tetrahydrochromeno[4,3-c]pyrazol-3-yl]propyl}dimethylamine] | – | ≤ 30 | – |
| CC(=O)N1CCN(CCC[C@@]2(c3ccccc3)[C@@H]3COc4ccc(F)cc4C3=NN2C(C)=O)CC1 (single isomer, unassigned) [Compound 5-5] | active | ≤ 30 | – |
| O=C(N1N=C2c3cc(F)ccc3OCC2C1(CCCN1CCOCC1)c1ccccc1)C(F)(F)F (centres unmarked) [Compound 3-11, 8-fluoro-3-(3-morpholin-4-ylpropyl)-3-phenyl-2-(trifluoroacetyl)-2,3,3a,4-tetrahydrochromeno[4,3-c]pyrazole] | – | ≤ 30 | – |
| O=C(N1N=C2c3cc(F)ccc3OCC2C1(CCCO)c1ccccc1)C(F)(F)F (centres unmarked) [Compound 3-7, 3-[8-fluoro-3-phenyl-2-(trifluoroacetyl)-2,3,3a,4-tetrahydrochromeno[4,3-c]pyrazol-3-yl]propan-1-ol] | – | ≤ 30 | – |
| CC(=O)N1CCN(CCC[C@@]2(c3ccccc3)[C@H]3COc4ccc(F)cc4C3=NN2C(C)=O)CC1 (relative stereo) [Compound 4-1, cis-2-acetyl-3-[3-(4-acetylpiperazin-1-yl)propyl]-8-fluoro-3-phenyl-2,3,3a,4-tetrahydrochromeno[4,3-c]pyrazole] | – | ≤ 30 | – |
| CC(=O)N1N=C2c3cc(F)ccc3OCC2C1(CCC1OCCCO1)c1ccccc1 (mixture of isomers) [Compound 5-4, 2-acetyl-3-[2-(1,3-dioxan-2-yl)ethyl]-8-fluoro-3-phenyl-2,3,3a,4-tetrahydrochromeno[4,3-c]pyrazole] | – | ≤ 30 | – |
